These results are taken from PMC8395335, “Serotonergic–Muscarinic Interaction within the Prefrontal Cortex as a Novel Target to Reverse Schizophrenia-Related Cognitive Symptoms” (International Journal of Molecular Sciences, 2021).

The test system of data set [1] is MK-801-treated mice. Kind of data set: Novel object recognition (NOR) test, MK-801-induced deficits. Format: in vivo. How it is done:
Drugs were administered on two different schedules: (1) acute administration of compounds 45 min (WAY100635—5-HT1A antagonist) or 30 min (VU0357017, VU152100, VU0238429, and F15599) before MK-801 (also administered once 30 min before the test in Y-maze or T1 in NOR test); and (2) prolonged administration (once per day for 7 consecutive days) of the compounds and MK-801 with the last administration 24 h before the test (NOR test) or at the day of the test (Y-maze). […] Schedules of administration are presented graphically in Figure 2. The subeffective doses of the compounds for acute administration in the NOR test were chosen based on our previous research (see: [22, 23]) while dose-dependent studies of the activity of the compounds in reversing disruptions in the Y-maze or after prolonged administration along with MK-801 were performed within this study. Different vehicles were used throughout the study: (1) 0.9% NaCl and (2) 10% Tween 80. Vehicles were administered to all animals (e.g., control mice and MK-801-treated mice) on the same schedule as drugs were administered to the appropriate drug-treated groups of mice. Neither solvent exerted effects on animal behavior.
Male Albino Swiss mice (Charles River, Sulzfeld, Germany) weighing 20–25 g at the beginning of the experiments were used in the studies. The animals were housed in a room with a 12:12 h light-dark cycle at a temperature of 22 ± 1 °C with food and water available ad libitum. The experimental groups consisted of 8–10 animals. All drugs were administered intraperitoneally (i.p.) at a volume of 10 mL/kg. The behavioral experiments were performed by an observer who was blinded to the treatment. The procedures were conducted in accordance with the European Communities Council Directive of 22 September 2010 (2010/63/EU) and Polish legislation acts concerning animal experimentation and were approved by the II Local Ethics Committee by the Maj Institute of Pharmacology, Polish Academy of Sciences in Krakow (15/2020, 240/2020).
In acute experiments, the tested compounds (alone or in combination) were administered 30 min before MK-801 (0.3 mg/kg), which was administered 30 min before the test or training trial (T1) in the NOR test. In chronic experiments, the tested compounds (alone or in combination) and MK-801 were administered for seven days. Behavioral tests were performed on the eighth day.
The NOR test was performed as described previously. Briefly, the habituation, training and test trial were carried out in a dark room in a black, plastic rectangular arena illuminated with a 355 lux bulb. During the habituation trial, the animals were allowed to explore the arena in the absence of objects (10 min/day for 2 days). The next day, the training (T1) and test (T2) trials were performed. Throughout T1, mice were allowed to freely explore two identical objects (5 min), one of which was subsequently replaced by a novel object in T2 (1 h later, 5 min of exploration). Time spent exploring (i.e., sniffing or touching) the familiar (Tfamiliar) or novel object (Tnovel) was measured by a trained observer, and then the recognition index was calculated for each mouse [(Tnovel − Tfamiliar)/(Tfamiliar + Tnovel)] × 100.

The nature of data set [2]: Pharmacokinetic analysis of drug-drug interactions (plasma, FC concentration, FC penetration). Format: in vivo, mice. To be noted: for Kp at 30 min / concentration at 30 min: Albino Swiss, mouse, intraperitoneal; for Kp at 30 min: frontal cortex/plasma. How it is done:
The experiment was performed using the methods described by Bridges et al. and in our previous studies.
The pharmacokinetic analysis was performed in the blood and prefrontal cortex. […] Plasma and FC samples were stored at −80 °C until analysis.
The investigated compounds were administered alone at the top dose (F15599—0.1 mg/kg, VU0357017—5 mg/kg, VU0152100—1 mg/kg, and VU0238429—5 mg/kg) and in combinations of muscarinic ligands at subeffective doses with F15599 at subeffective dose (F15599 + VU0357017 0.05 and 0.15 mg/kg, F15599 + VU0152100 0.05 and 0.05 mg/kg, F15599 + VU0238429 0.05 and 1 mg/kg). The FC and blood were collected on the eighth day, 30 min after administration. All mice were parallelly treated with MK-801 (0.3 mg/kg) for seven consecutive days.
On the day of analysis, frozen whole mouse brain tissues were weighed and homogenized in 1:2 (w/v) volumes of ice-cold acetonitrile containing 0.1% FA and the internal standard mix. Samples were homogenized using a Metal Bead Lysing Matrix, vortexed for 1 min, shaken for 20 min at 4 °C on Thermomixer C, and centrifuged at 14,000× g rpm for 20 min at 4 °C. Finally, 50 µL of supernatant were diluted with 0.1% FA in water (1:1, v/v) and analyzed using HPLC/MS/MS.
The sample extraction of plasma (20 μL) was performed after spiking with the internal standard mix using the protein precipitation method and three volumes of ice-cold acetonitrile containing 0.1% formic acid. The extract was vortexed, incubated on ice for 20 min and centrifuged at 14,000× g rpm for 20 min at 4 °C. The supernatant was diluted with 0.1% FA in water (1:1, v/v) and analyzed by means of HPLC/MS/MS using a QTRAP 4500 (AB Sciex) mass spectrometer in positive ion mode in Multiple Reaction Monitoring (MRM screening) coupled with UHPLC (NEXERA XR, Shimadzu). Chromatographic separation was achieved on a Synergi 4 µm Fusion-RP 80 A 50 × 2 mm (Phenomenex) column at a flow rate of 0.2 mL/min. The gradient program was as follows: 20% B (0.3 min), 20–100% B (1.7 min), 100% B (3 min), 100–20% B (0.1 min), 20% B (2 min), solvent A (95:5:0.1% formic acid in water:methanol) and solvent B (methanol containing 0.1% formic acid). The column temperature was set to 40 °C. Analyst software was used to control the instrument and collect data. The ion transfer tube temperature was 300 °C. The spray voltage, collision energy, declastering potential, and gas parameters were optimized to achieve the maximal response using the test compounds. Selected reaction monitoring was carried out using the transition parameters. Calibration curves were constructed, and a linear response was obtained in the range of 0.25–500 ng/mL (VU357017, VU0152100, and F15599) and 1.25–2500 ng/mL (VU0238429) by spiking known amounts of each compound in blank brain homogenates and plasma. For VU0357017 and F15599 IS VU0152100 was used as internal standard. Sample concentration of internal standard was 100 ng/mL for IS VU0238429 and 50 ng/mL for IS VU0152100.
Brain penetration was calculated as FC/plasma ratio × 100%.

Read-outs that look alike come from different tables or passages of the source.

Regarding `CCOC(=O)N1CCC(NCCNC(=O)c2ccccc2C)CC1` [VU0357017], the “Reversal of MK-801-induced deficits in the NOR test (recognition index)” value in data set [1] (7 days with MK-801, 0.15 mg/kg) is “ineffective”. In addition, in data set [1] (7 days, F15599 0.05 mg/kg with VU0357017 0.15 mg/kg (subeffective doses)), the “Reversal of MK-801-induced disruptions in NOR test by combined administration” value is reported as “reversed”. Besides, in data set [1] (acute, 5 mg/kg i.p., alone), the “Effect of top dose on MK-801-induced deficits in the NOR test” value is “pro-cognitive effect”. In addition, in data set [1] (acute, subeffective doses, F15599 with VU0357017), the “Effect of combined administration on MK-801-induced memory deficits in the NOR test” value is reported as “no effect”. The Kp at 30 min in data set [2] (acute, combination F15599 0.05 mg/kg + VU0357017 1 mg/kg, read-out: PFC Penetration) is 0.31; in data set [2] (acute, top doses alone (VU0357017 5, VU0152100 1, VU0238429 5, F15599 0.1 mg/kg), 30 min after administration, read-out: PFC Penetration (FC/plasma ratio x 100%)), 0.67; in data set [2] (chronic (7 days with MK-801), combination F15599 0.05 mg/kg + VU0357017 0.15 mg/kg, read-out: PFC Penetration), 0.46; in data set [2] (chronic (7 days with MK-801), top doses alone (VU0357017 5, VU0152100 1, VU0238429 5, F15599 0.1 mg/kg), read-out: PFC Penetration (FC/plasma ratio x 100%)) it was 0.36. Moreover, the concentration at 30 min was found to be 7.19 ± 0.24 ng/mL in data set [2] (plasma, acute, combination F15599 0.05 mg/kg + VU0357017 1 mg/kg, read-out: Plasma); 107 ± 7.65 ng/mL in data set [2] (plasma, acute, top doses alone (VU0357017 5, VU0152100 1, VU0238429 5, F15599 0.1 mg/kg), 30 min after administration, read-out: Plasma); 5.13 ± 0.38 ng/mL in data set [2] (plasma, chronic (7 days with MK-801), combination F15599 0.05 mg/kg + VU0357017 0.15 mg/kg, read-out: Plasma); 138 ± 14.9 ng/mL in data set [2] (plasma, chronic (7 days with MK-801), top doses alone (VU0357017 5, VU0152100 1, VU0238429 5, F15599 0.1 mg/kg), read-out: Plasma); 2.25 ± 0.56 ng/mL in data set [2] (prefrontal cortex (FC), acute, combination F15599 0.05 mg/kg + VU0357017 1 mg/kg, read-out: PFC); 71.7 ± 4.69 ng/mL in data set [2] (prefrontal cortex (FC), acute, top doses alone (VU0357017 5, VU0152100 1, VU0238429 5, F15599 0.1 mg/kg), 30 min after administration, read-out: PFC). Moreover, the concentration at 30 min is 2.34 ± 0.255 ng/mL in data set [2] (prefrontal cortex (FC), chronic (7 days with MK-801), combination F15599 0.05 mg/kg + VU0357017 0.15 mg/kg, read-out: PFC) and 50.3 ± 4.62 ng/mL in data set [2] (prefrontal cortex (FC), chronic (7 days with MK-801), top doses alone (VU0357017 5, VU0152100 1, VU0238429 5, F15599 0.1 mg/kg), read-out: PFC). Also, the “PFC Penetration (FC/plasma ratio x 100%)” value in data set [2] (acute, top doses alone (VU0357017 5, VU0152100 1, VU0238429 5, F15599 0.1 mg/kg), 30 min after administration) was determined as 67%; in data set [2] (chronic (7 days with MK-801), top doses alone (VU0357017 5, VU0152100 1, VU0238429 5, F15599 0.1 mg/kg)), 36%. Moreover, the “Decrease of FC penetration after acute concomitant administration with F15599” value in data set [2] (subeffective doses, compared to top dose alone) was “more than 50%”. For the same compound, the “Decrease of FC penetration after prolonged administration compared to acute” value in data set [2] (top doses alone, animals treated with MK-801) is “ca. 50%”.
